Data reported in patent publication US12714702B2, “Compositions and methods for treating or preventing pulmonary hypertension” (priority 2020, dated 2026).

Key:
[1] = test system: serum starved bovine PASMCs; assay: Autophagy inhibition assay, Cyto-ID autophagy detection kit; assay type: cell-based; conditions: QA 2.5 and 5 μM, 24 hours
Method: (§1) In FIGS. 9A-9B, PASMC were serum starved for 24 hours, and then treated with varying QA concentrations in serum-starved media. Quantification was performed using Cyto-ID® autophagy kit and Annexin-V/FITC apoptosis kit. […] In FIG. 9C, autophagy inhibition by QA (5 μM) as depicted by increase in LC3B-II concentration in bovine high altitude PASMC quantified by western blot assay kit. Data represent mean±SD (n=3). *p<0.05.
Bovine PASMCs were serum starved in FBS-free media for 24 hours, and then treated with QA for 24 hours at various concentrations (0, 2.5, or 5 μM). Autophagic inhibition (lysosomal fusion with autophagosomes) was measured with Cyto-ID® autophagy detection kit (Enzo Lifesciences Inc., Farmingdale NY) according to manufacturer's manual.
(§2) Autophagy inhibition (lysosomal fusion with autophagosomes) by QA was examined. Bovine PASMCs were serum starved in FBS-free media for 24 hours, and then treated with QA (2.5 and 5 μM) for 24 hours. Autophagic inhibition was measured with Cyto-ID® autophagy detection kit. […] QA-induced autophagy inhibition by targeting LC3B-II expression was examined using HAPASMCs.
(§3) In other independent experiments, QA's ability to modulate autophagy/apoptotic pathways was quantified in vitro in serum-starved bovine PASMC cells. Similar results were observed.

ITCH/AIP4 E3 ligase = ITCH/AIP4 E3 ligase (Homo sapiens, UniProt Q96J02); assay: ITCH/AIP4 E3 ligand activity assay, ubiquitin ELISA (UbiQuant); assay type: biochemical; conditions: 20 μM dose
ITCH/AIP4 E3 ligase, sequence (Q96J02 whole entry): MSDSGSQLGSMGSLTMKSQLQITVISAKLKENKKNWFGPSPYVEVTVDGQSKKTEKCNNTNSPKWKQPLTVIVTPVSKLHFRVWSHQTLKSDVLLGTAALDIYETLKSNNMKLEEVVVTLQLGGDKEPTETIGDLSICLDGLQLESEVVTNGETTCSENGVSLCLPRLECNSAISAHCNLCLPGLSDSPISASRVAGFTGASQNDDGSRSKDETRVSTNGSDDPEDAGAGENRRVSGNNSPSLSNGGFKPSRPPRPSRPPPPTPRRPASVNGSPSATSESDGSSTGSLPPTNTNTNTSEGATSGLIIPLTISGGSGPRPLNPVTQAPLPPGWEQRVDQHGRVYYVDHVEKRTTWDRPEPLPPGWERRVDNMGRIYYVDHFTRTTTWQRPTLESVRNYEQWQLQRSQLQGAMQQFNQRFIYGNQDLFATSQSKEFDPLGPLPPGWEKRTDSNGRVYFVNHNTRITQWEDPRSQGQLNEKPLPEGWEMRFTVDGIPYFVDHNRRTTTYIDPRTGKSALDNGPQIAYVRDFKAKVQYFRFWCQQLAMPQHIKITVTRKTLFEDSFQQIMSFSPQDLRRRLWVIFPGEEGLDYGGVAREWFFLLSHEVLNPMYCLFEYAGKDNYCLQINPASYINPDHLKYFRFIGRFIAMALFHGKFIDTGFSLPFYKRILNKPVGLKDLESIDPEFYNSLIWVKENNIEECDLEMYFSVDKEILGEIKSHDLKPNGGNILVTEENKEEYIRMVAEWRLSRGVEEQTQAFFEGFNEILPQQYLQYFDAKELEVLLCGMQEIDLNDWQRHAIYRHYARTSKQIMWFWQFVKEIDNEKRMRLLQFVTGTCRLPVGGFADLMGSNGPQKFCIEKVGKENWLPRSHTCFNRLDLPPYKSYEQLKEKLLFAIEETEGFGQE
Method: The ligand activity inhibition by QA at multiple concentrations (0, 10, or 20 μM) in presence of ubiquitin was quantified.

[2] = test system: LC3B-II in high-altitude bovine PASMCs; assay: Autophagy inhibition assay (LC3B-II expression), western blot; assay type: cell-based; conditions: high altitude bovine PASMC cell lysate, QA 5 μM
Method: as §1
High-altitude bovine PASMCs were used to determine the effect of QA on LC3B-II, an autophagy marker, by western blotting (#3868S, LC3B (D11) XP Rabbit monoclonal antibody, Cell Signaling, Danvers, MA).
as §2

[3] = test system: serum-starved bovine PASMCs; assay: Annexin V FITC assay (apoptotic induction); assay type: cell-based; conditions: 2.5 or 5 μM, 24 hours, concentration-dependent
Method: as §1
Bovine PASMC were serum starved in FBS-free media for 24 hours, and then treated with QA for 24 hours at various concentrations (0, 2.5, or 5 μM). Annexin V levels were measured with Annexin V FITC assay kit (#600300, Cayman Chemical, Ann Arbor, MI) according to manufacturer's manual.
An apoptotic induction assay, i.e., Caspase-3 assay was performed to understand QA's impact on cellular apoptosis in primary human PASMCs following 6-hour treatment. […] Moreover, another apoptotic induction assay, i.e., Annexin V FITC assay was also used to measure the effects of QA on serum-starved bovine PASMCs.
as §3

[4] = test system: serum starved human PASMC; assay: Proliferation after cell starvation, CyQUANT Direct; assay type: cell-based; conditions: Day 5 at 3.1 and 6.2 μM, Day 3 at 6.2 μM
Method: (§4) Primary human PASMC were treated with QA up to 6.2 μM concentration. Cell proliferation was quantified by Cyquant Direct.
Briefly, diseased IPAH SMC II cells were seeded in TC-treated 96 well plates in FBS-rich medium and were allowed to adhere overnight. Following day, FBS-rich media was replaced with FBS-Starved media (0% FBS). Cells were further incubated at 37° C./5% CO2 for 24 hours followed by treatments with varying concentrations of QA (1.5-, 3.1-, and 6.2-μM) with dilutions being made in FBS-Starved media. Cellular proliferation was measured as described herein.
In-vitro studies to measure anti-proliferative activity of QA against pulmonary hypertension were performed using primary human PASMC (FIG. 3), primary bovine PASMC (FIG. 4) and high altitude PASMC (HAPASMC) (FIG. 4). HAPASMC, due to prolonged hypoxia exposure, are known to be hyper-proliferative in regular culture conditions, while hyper-proliferation was induced in PASMC cells by 24 hour serum starvation, or by exposure to 5-hydroxytryptamine (5-HT). […] As hyper-proliferation of vascular smooth muscle cells is one of the primary underlying causes for clinical progression of PH pathogenesis, these experiments highlight the therapeutic potential of QA in reversing PH symptoms and progression at non-toxic doses.

primary human PASMC = assay: Standard cell proliferation, CyQUANT Direct; assay type: cell-based; conditions: Day 3 and Day 5, single QA treatment at 3.1 and 6.2 μM
Method: as §4
Cellular proliferation for diseased IPAH SMC II (Patient ID: L164) cells was evaluated using CyQUANT™ Direct Cell Proliferation Assay (ThermoFisher Scientific, Waltham, MA, USA). Briefly, upon 90% confluency, SMCs were harvested and seeded in TC-treated 96-well plates at a density of 1000 cells/well and were allowed to adhere overnight.
Human or bovine PASMC were treated with varying concentrations of QA (1.5-, 3.1-, and 6.2-μM). Cellular proliferation was measured at day 1, day 3 and day 5 by following the manufacturer's protocol. Briefly, a reagent mix of nucleic acid stain and background suppressor were added in PBS followed by addition of the mix in treatment wells (100 μL/well). The plates were incubated at 37° C./5% CO2 for one hour followed by evaluation of fluorescence at 485 ex/535 em. Proliferation inhibition was analyzed relative to control wells on each time point. Data was averaged from two trials with n=6 for SMC II and one trial of n=4 for SMC III.
In-vitro studies to measure anti-proliferative activity of QA against pulmonary hypertension were performed using primary human PASMC (FIG. 3), primary bovine PASMC (FIG. 4) and high altitude PASMC (HAPASMC) (FIG. 4). […]

For CCN(CC)CCCC(C)Nc1c2ccc(Cl)cc2nc2ccc(OC)cc12 (stereo not drawn) [QA, quinacrine], the “accumulation of fluorescent dye in autophagosomes (autophagy inhibition)” value [1] was “significantly enhanced the accumulation”, the “reduction in total polyubiquitination resulting from ITCH/AIP4 activity” value (ITCH/AIP4 E3 ligase) was ~ 25% and the “increase in LC3B-II expression” value [2] was > 2 fold. The “apoptotic induction (fluorescence intensity of Annexin-V stained cells)” value [3] was “significantly enhanced apoptotic induction”, the cellular hyper-proliferation [4] was “Significant reduction” and the cellular hyper-proliferation (primary human PASMC) was “Significant reduction”.
